Patent US7183375B2, “Inhibitors for continuous activation for calcineurin” (Agencey of Industrial Science and Technology, priority 2002, dated 2007)
Where a SMILES comes first, the peptide text is derived from it. Where no end group is shown, it is not given here.

Legend:
neuronal cells = experiment: Neuronal cell death induced by glutamic acid (TUNEL staining, TUNEL positive cell count); type: cell-based, Wister rat; details: peptides of SEQ Nos. 5 and 6 1 μM, FK506 1 μM, ALLM 25 μM; glutamic acid 500 μM; TUNEL at 3, 6, 12 or 24 hours; FIG. 2
Protocol: (§1) After the brain hippocampus from 18 days embryo of Wister rat had been removed, it was treated with PBS containing 0.05% trypsin for 15 minutes at 37° C. After the neuronal cells were suspended with a glass pipet, 1×10^6 cells were cultured in a 3.5 cm diameter culture dish which was previously coated with poly-D-lysine. As the medium, 3 ml Neuro Basal medium (available from Invitrogen, Inc.) complemented with B27 supplement (0.03 ml; available from Invitrogen, Inc.), penicillin (100 units/ml in the final concentration; available from Invitrogen, Inc.) and streptomycin (100 μg/ml in the final concentration; available from Invitrogen, Inc.) was used and the cultivation was carried out in carbon dioxide incubator (5% CO2, 37° C.).
The neuronal cells were cultured in the same manner as in Example 1, and then the above-mentioned peptides of SEQ Nos. 5 and 6 were added in the final concentration of 1 μM in the same manner as in Example 1. The calcineurin inhibitor, FK506 (available from Fujisawa pharmaceutical Co., Ltd.; the final concentration of 1 μM) or calpain inhibitor, ALLM (available from Merck & Co., Inc.; the final concentration of 25 μM) was added as a control. After 2 hours incubation with each reagent, glutamic acid was added in the final concentration of 500 μM, followed by 15 minutes incubation. […] The TUNEL positive cell was counted.

[1] = system: calcineurin subunit A (CaNA); experiment: Cleavage of CaNA in cultured neuronal cells after glutamic acid addition (Western blotting); type: cell-based, Wister rat; details: peptides of SEQ Nos. 5 and 6 at 1 μM; glutamic acid 500 μM, 15 minutes; cells collected at 3 hours and 24 hours; FIG. 1
Protocol: as §1
The peptides of above-mentioned SEQ Nos. 5 and 6 were added in the culture solution with the final concentration of 1 μM 10 days after beginning of culture, and it was incubated in carbon dioxide incubator (5% CO2, 37° C.). Three hours after the addition, glutamic acid was added in the final concentration of 500 μM, and it was incubated for 15 minutes. The culture solution was then exchanged, and it was further cultured. The cells were collected at 3 hours and 24 hours after glutamic acid was added, were disrupted by ultrasonic wave in 1% SDS solution, and the SDS-PAGE buffer was added thereto. […]

neuronal cell death = details: reported in literature (Morioka 1999; Springer 2000); cited from earlier work

With `CSCC[C@@H](C=O)NC(=O)[C@H](CC(C)C)NC(=O)[C@H](CC(C)C)NC(C)=O` [ALLM] (Ac-Leu-Leu-Met-aldehyde) the “neuronal cell death induced by glutamic acid” value (neuronal cells) was “same degree”.

For “cleavage inhibiting peptide: peptides of SEQ Nos. 5 and 6 added together to the culture solution, 1 μM final concentration (chain 1 RRRRRRRRRRFDGATAAARKEVIRNK; chain 2 RRRRRRRRRRREESESVLTLKGLTPTG; also: mixture of two peptides added together)”, the “cleavage of calcineurin caused by the addition of glutamic acid” value [1] was “inhibited” and the “neuronal cell death induced by glutamic acid” value (neuronal cells) was “suppressive effect”.

In the case of cyclosporin A, the neuronal cell death (neuronal cell death) is given as “suppresses neuronal cell death”.
